What all share (type): cell-based
Test [1] has as its target Melanocortin receptor 3 (Mus musculus) (UniProt P33033). In words: Antagonist activity at mouse melanocortin-3 receptor transfected in HEK293 cells assessed as inhibition of MTII-induced response up to 10 uM after 6 hrs by Schild analysis.
The target in the next test is Melanocortin receptor 5 (Mus musculus, UniProt P41149). In words: Agonist activity at mouse melanocortin-5 receptor transfected in HEK293 cells after 6 hrs by beta-galactosidase reporter gene assay. On the technique in general: A reporter such as luciferase makes a cellular process visible.
Test [2] has as its target Melanocyte-stimulating hormone receptor (Mus musculus, UniProt Q01727). In words: Agonist activity at mouse melanocortin-1 receptor transfected in HEK293 cells after 6 hrs by beta-galactosidase reporter gene assay.
Test [3] concerns the target Melanocortin receptor 3 (Mus musculus) (UniProt P33033). Kind of test: Agonist activity at mouse melanocortin-3 receptor transfected in HEK293 cells at 100 uM after 6 hrs by beta-galactosidase reporter gene assay relative to MTII-induced maximal response.
Test [4] addresses Melanocortin receptor 4 (Mus musculus) (UniProt P56450). In words: Agonist activity at mouse melanocortin-4 receptor transfected in HEK293 cells at 100 uM after 6 hrs by beta-galactosidase reporter gene assay relative to MTII-induced maximal response.
For test [5] the target is unchanged. Kind of test: (§1) Antagonist activity at mouse melanocortin-4 receptor transfected in HEK293 cells assessed as inhibition of MTII-induced response after 6 hrs by Schild analysis.
Test [6] deals with T1, Melanocortin receptor 4 (Mus musculus, UniProt P56450). The description is as §1. The note with it: for Kb: read-out: pA2 (converted).
For test [7], the target named is T1, Melanocortin receptor 4. In words: Agonist activity at mouse melanocortin-4 receptor transfected in HEK293 cells after 6 hrs by beta-galactosidase reporter gene assay.
For test [8], the target named is T2, Melanocortin receptor 3 (Mus musculus, UniProt P33033). Kind of test: Agonist activity at mouse melanocortin-3 receptor transfected in HEK293 cells after 6 hrs by beta-galactosidase reporter gene assay.
Test [9] deals with Melanocortin receptor 3 (Mus musculus) (UniProt P33033). In words: Antagonist activity at mouse melanocortin-3 receptor transfected in HEK293 cells assessed as inhibition of MTII-induced response up to 100 uM after 6 hrs by Schild analysis.
Test [10] deals with T2, Melanocortin receptor 3. Kind of test: (§2) Antagonist activity at mouse melanocortin-3 receptor transfected in HEK293 cells assessed as inhibition of MTII-induced response after 6 hrs by Schild analysis. The note with it: read-out: pA2 (converted).
Test [11] concerns the target Melanocortin receptor 3 (Mus musculus) (UniProt P33033). In words: Agonist activity at mouse melanocortin-3 receptor transfected in HEK293 cells at 1 uM after 6 hrs by beta-galactosidase reporter gene assay relative to MTII-induced maximal response.
Test [12] has the same target. The description is as §2.

Data on ten compounds can be found in ChEMBL document CHEMBL3421543, “Melanocortin antagonist tetrapeptides with minimal agonist activity at the mouse melanocortin-3 receptor” (ACS Med Chem Lett, 2015).

Calls of active or inactive are those of the source. The calls are words filed in the database; no cut-off is given here. Where a SMILES comes first, the peptide text is derived from it. [ ]: non-standard residue; d: D form. dPhe(4-I) = N[C@H](Cc1ccc(I)cc1)C(=O)O

Chain of Melanocortin receptor 3 (Mus musculus) (P33033 whole entry): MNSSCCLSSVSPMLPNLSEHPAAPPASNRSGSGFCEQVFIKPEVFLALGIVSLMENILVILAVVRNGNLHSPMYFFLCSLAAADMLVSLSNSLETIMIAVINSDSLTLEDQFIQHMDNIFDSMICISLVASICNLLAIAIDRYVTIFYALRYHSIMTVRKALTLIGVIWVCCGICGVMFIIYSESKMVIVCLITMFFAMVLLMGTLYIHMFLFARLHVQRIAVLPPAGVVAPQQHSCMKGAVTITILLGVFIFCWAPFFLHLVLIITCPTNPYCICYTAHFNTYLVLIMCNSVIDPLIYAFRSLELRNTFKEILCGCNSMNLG
T2 sequence (P33033 whole entry): as above
Chain of Melanocyte-stimulating hormone receptor (Q01727 whole entry): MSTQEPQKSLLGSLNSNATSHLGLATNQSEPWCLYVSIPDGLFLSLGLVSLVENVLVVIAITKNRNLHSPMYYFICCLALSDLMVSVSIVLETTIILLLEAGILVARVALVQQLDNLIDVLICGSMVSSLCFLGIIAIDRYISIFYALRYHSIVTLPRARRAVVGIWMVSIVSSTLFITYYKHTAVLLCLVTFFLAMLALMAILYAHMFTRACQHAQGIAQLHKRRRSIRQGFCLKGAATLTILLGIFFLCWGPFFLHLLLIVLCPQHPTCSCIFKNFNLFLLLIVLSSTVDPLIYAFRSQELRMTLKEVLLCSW
Chain of Melanocortin receptor 5 (P41149 whole entry): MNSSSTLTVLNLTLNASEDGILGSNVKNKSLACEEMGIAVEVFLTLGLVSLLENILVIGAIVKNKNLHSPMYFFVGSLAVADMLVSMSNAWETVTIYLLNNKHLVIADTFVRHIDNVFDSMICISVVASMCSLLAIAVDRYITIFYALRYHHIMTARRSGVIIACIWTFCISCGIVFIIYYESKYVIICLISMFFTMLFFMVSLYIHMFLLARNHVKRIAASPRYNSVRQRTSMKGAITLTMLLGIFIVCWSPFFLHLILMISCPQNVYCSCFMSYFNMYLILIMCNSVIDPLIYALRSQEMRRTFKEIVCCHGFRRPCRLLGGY
T1 sequence (P56450 whole entry): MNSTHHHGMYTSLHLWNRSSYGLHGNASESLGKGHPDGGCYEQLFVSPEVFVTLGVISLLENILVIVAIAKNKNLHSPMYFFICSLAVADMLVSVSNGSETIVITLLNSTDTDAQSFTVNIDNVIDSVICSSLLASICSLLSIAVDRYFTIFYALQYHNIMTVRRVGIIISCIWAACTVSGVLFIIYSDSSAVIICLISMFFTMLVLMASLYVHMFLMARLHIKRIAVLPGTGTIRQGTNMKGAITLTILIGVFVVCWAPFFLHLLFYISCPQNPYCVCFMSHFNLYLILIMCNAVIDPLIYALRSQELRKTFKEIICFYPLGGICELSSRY
Chain of Melanocortin receptor 4 (Mus musculus) (P56450 whole entry): as above

As a reminder, the EC50 is the midpoint of the concentration-response curve. High values mean a less potent agent, low ones a more potent agent. For `CC(=O)N[C@@H](Cc1c[nH]c2ccccc12)C(=O)N[C@H](Cc1ccc(I)cc1)C(=O)N[C@@H](CCCNC(=N)N)C(=O)N1Cc2ccccc2C[C@H]1C(N)=O`, the inhibition result in [1] was “inactive”. In addition, the EC50 at Melanocortin receptor 5 is 5300 nM; in [2], 2700 nM. Also, the values for the Activity in [3] and in test [4] were 48% and 44%, respectively. Also, in test [5], the INH was found to be 1 µM. Also, at Melanocortin receptor 4 [6], the Kb was 1000 nM.
`CC(=O)N[C@@H](Cc1c[nH]c2ccccc12)C(=O)N[C@H](Cc1ccc(I)cc1)C(=O)N[C@@H](CCCNC(=N)N)C(=O)N[C@@H](Cc1ccccc1)C(N)=O`: the EC50 at Melanocortin receptor 5 is 1800 nM; in test [2], 6500 nM. Also, the Activity in [3] was 66%; in test [4], 44%. At Melanocortin receptor 4 [6], the Kb is 158 nM.
Regarding `CC(=O)N[C@@H](Cc1c[nH]c2ccccc12)C(=O)N[C@H](Cc1ccc(I)cc1)C(=O)N[C@@H](CCCNC(=N)N)C(=O)N[C@@H](Cc1c[nH]c2ccccc12)C(N)=O` (Ac-W[dPhe(4-I)]RW-NH2), the EC50 on Melanocortin receptor 5 is 2800 nM; in test [2] it was 2000 nM; at Melanocortin receptor 4 [7] it was > 100000 nM; on Melanocortin receptor 3 [8], > 100000 nM.
As to `CC(=O)N[C@@H](Cc1c[nH]c2ccccc12)C(=O)N[C@H](Cc1ccc(I)cc1)C(=O)N[C@@H](CCCNC(=N)N)C(=O)N[C@@H](Cc1csc2ccccc12)C(N)=O`, the EC50 at Melanocortin receptor 5 is 23700 nM; in [2], 8300 nM; at Melanocortin receptor 4 [7], > 100000 nM; at Melanocortin receptor 3 [8] it was > 100000 nM. Further, the inhibition result in [9] is “inactive”. For the same compound, the Kb at Melanocortin receptor 4 [6] was 79.4 nM.
`CC(=O)N[C@@H](Cc1cnc[nH]1)C(=O)N[C@H](Cc1ccccc1)C(=O)N[C@@H](CCCN=C(N)N)C(=O)N[C@@H](Cc1c[nH]c2ccccc12)C(N)=O`: the values for the EC50 on Melanocortin receptor 5 and on Melanocortin receptor 4 [7] were 4.6 nM and 5.4 nM, respectively.
As a reminder, the Ki is the dissociation constant of the complex between target and ligand, obtained from inhibition or displacement. Turning to `CC(=O)N[C@@H](Cc1c[nH]c2ccccc12)C(=O)N[C@H](Cc1ccc(I)cc1)C(=O)N[C@@H](CCCNC(=N)N)C(=O)N[C@H](Cc1ccc2ccccc2c1)C(N)=O`, the EC50 was 19700 nM on Melanocortin receptor 5, 5800 nM in test [2], > 100000 nM on Melanocortin receptor 4 [7] and > 100000 nM on Melanocortin receptor 3 [8]. Also, the Kb on Melanocortin receptor 3 [10] is 2000 nM; at Melanocortin receptor 4 [6], 5.01 nM. Also, the Ki at Melanocortin receptor 4 [6] was < 6 nM.
As to `CC(=O)N[C@@H](Cc1c[nH]c2ccccc12)C(=O)N[C@H](Cc1ccc(I)cc1)C(=O)N[C@@H](CCCNC(=N)N)C(=O)N[C@@H](Cc1ccc(-c2ccccc2)cc1)C(N)=O`, the EC50 was 7800 nM at Melanocortin receptor 5, 20700 nM in test [2], > 100000 nM at Melanocortin receptor 4 [7] and > 100000 nM at Melanocortin receptor 3 [8]. Also, the inhibition entry in [9] is “inactive”. Moreover, the INH in [5] turned out to be 0.48 µM. For the same compound, at Melanocortin receptor 4 [6], the Kb is 501 nM.
Take `CCCC[C@H](NC(C)=O)C(=O)N[C@H]1CC(=O)NCCCC[C@@H](C(N)=O)NC(=O)[C@H](Cc2c[nH]c3ccccc23)NC(=O)[C@H](CCCNC(=N)N)NC(=O)[C@@H](Cc2ccc3ccccc3c2)NC(=O)[C@H](Cc2c[nH]cn2)NC1=O`: in test [11], the Activity is 54%. A half-maximal response in [2] (EC50) required 0.67 nM.
As to `CC(=O)N[C@@H](Cc1c[nH]c2ccccc12)C(=O)N[C@H](Cc1ccc(I)cc1)C(=O)N[C@@H](CCCNC(=N)N)C(=O)N[C@@H](Cc1ccc2ccccc2c1)C(N)=O`, the EC50 on Melanocortin receptor 5 was 20300 nM; in test [2], 5500 nM; at Melanocortin receptor 4 [7], > 100000 nM; at Melanocortin receptor 3 [8] it was > 100000 nM. The Kb at Melanocortin receptor 3 [10] was 1260 nM; at Melanocortin receptor 4 [6], 5.01 nM. The Ki at Melanocortin receptor 4 [6] is < 6 nM.
On to `CC(=O)N[C@@H](Cc1cnc[nH]1)C(=O)N[C@H](Cc1ccccc1)C(=O)N[C@@H](CCCNC(=N)N)C(=O)N[C@@H](Cc1c[nH]c2ccccc12)C(N)=O`, for which the pA2 result in [12] and in [5] was “inactive” throughout.
